According to patent US20060166867A1, “Novel conjugates of polysaccharides and uses thereof” (priority 2003, published 2006):
Several values for one entry are separate records, joined by “and”; a condition that tells them apart may be missing. Equal values may be shown once. Read-outs that look alike come from different tables or passages of the source.

How the values were obtained:
[1] = system: Proteus mirabilis ATCC 7002; settings: Gram negative reference strain
[2] = system: K. pneumoniae-ESBL positive; settings: Gram negative clinical isolate
Serratia marcescens = settings: Gram negative clinical isolate
[3] = system: A. baumannii-amikacin^s, meropenem^s; settings: Gram negative clinical isolate
S. aureus MSSA = settings: Gram positive clinical isolate
HIV-1 IIIB = test: microbe, parasite or virus in culture; format: cell-based; settings: Table 3; against HIV-1 IIIB virus; read-out: EC50
Description: Inhibition of HIV-1 cell replication was tested using the cMAGI assay, which is based on the ability of HIV-1 TAT to transactivate the expression of an integrated β-galactosidase reporter gene driven by the HIV-LTR (B. Chackeria et al., J. Virol., (1997) 71, 3932; Collins et al., Nat. Med. (2000) 6, 475). The β-galactosidase reporter is modified to remain localized in the nucleus where it can be detected with the X-gal (5-bromo-4-chloro-3indoyl-β-D-galactopyranoside) substrate as an intense nuclear stain within a few days of infection.
(§1) HIV-1 isolates were propagated by subculture in MT2 cells (Litovchick et al. (2001) supra). Aliquots of cell-free culture supernatants were used as viral inoculum. PAACs were dissolved in the RPMI 1640 medium. Cytotoxicity determinations were carried out in MT2 cells by trypan blue exclusion assay. Viral inhibition was determined by incubating MT2 or cMAGI HIV-1 reporter cells with 0.2-0.5 multiplicity of infection of HIV-1 wild type or resistant virus for 4 days at 37° C. in the presence or absence of various concentrations of pAACs. HIV-1 infection of cMAGI cells was determined by counting the number of HIV-1-infected cells (stained blue). The cytopathic effects of the viral infection of MT2 cells were also analyzed by microscopic assessment of syncytium formation.

[4] = system: Moraxella catarrhalis ATCC 25238 (Branhamella); settings: Gram negative reference strain
VRE faecium = settings: clinical isolate, Table 7
E. coli U3075921 = test: MIC, broth microdilution; format: cell-based, Escherichia coli; settings: clinical isolate, Table 7
Description: (§2) Minimal Inhibition Concentration (MIC) measurements: The Minimal Inhibitory Concentration (MIC) was generally determined by the Broth Microdilution method (based on the protocol described in Clinical and Laboratory Standard Institute (CLSI) NCCLS (2003) M7-A6), as follows:
(§3) A stock solution of each of the tested compounds was prepared by diluting the compound to a 2,560 μg/ml concentration with an appropriate solvent. The stock solution was then serially 2-fold diluted in 96-well microdilution trays using Cation-Adjusted Mueller-Hinton Broth (CAMHB) until reaching the desired range of concentrations, whereas each well contained double the final working concentration. Each row further had one growth control well (medium+inoculum only), and one sterility control well (medium+tested compound). Plates were stored at −70° C. until used.
(§4) The tested microorganisms were used as fresh overnight cultures on blood agar (for gram-positive organisms) or MacConkey agar (for gram-negatives). A standardized inoculum suspension was prepared by the direct colony suspension method, using sterile saline (equivalent to a 0.5 McFarland standard).
(§5) Thus, 50 μl of the inoculum suspension were added to each tested well (except for the sterility control well), and […] was performed during 18-24 hours (depending on the tested microorganism or compound) at 35° C.

[5] = system: Escherichia coli ATCC 25922; settings: Gram negative reference strain
[6] = system: K. pneumoniae-ESBL negative; settings: Gram negative clinical isolate
[7] = system: P. aeruginosa-gentamicin^s, meropenem^s; settings: Gram negative clinical isolate
E. Coli-ESBL positive = settings: Gram negative clinical isolate
Enterobacter aerogenes = settings: Gram negative clinical isolate
[8] = system: Klebsiella pneumoniae ATCC 13883; settings: Gram negative reference strain
[9] = system: P. aeruginosa-gentamicin^r, meropenem^r; settings: Gram negative clinical isolate
CXCR4 = target: T1, CXCR4 (Homo sapiens, UniProt P61073); test: Competition with 12G5 mAb binding to CXCR4 on MT2 cells (flow cytometry); settings: 80 μM; read-out: % Inhibition of 12G5 mAb binding to CXCR4
T1 construct: incubated at 4° C. with anti-CXCR4 mAb, 12G5, conjugated to phycoerithrine (PE); endogenous in cells; host or cells: MT2 cells
T1 sequence (P61073 whole entry): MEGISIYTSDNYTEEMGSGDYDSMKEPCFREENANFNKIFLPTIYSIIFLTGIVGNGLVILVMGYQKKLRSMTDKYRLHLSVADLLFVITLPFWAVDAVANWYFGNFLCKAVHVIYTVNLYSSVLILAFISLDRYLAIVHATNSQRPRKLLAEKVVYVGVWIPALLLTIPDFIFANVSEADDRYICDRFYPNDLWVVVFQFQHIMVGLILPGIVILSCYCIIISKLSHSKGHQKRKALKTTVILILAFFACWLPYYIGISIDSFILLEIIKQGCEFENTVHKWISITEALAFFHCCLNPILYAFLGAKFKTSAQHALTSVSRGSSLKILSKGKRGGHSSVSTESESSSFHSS
Description: Interaction of pAACs and arginine peptides with CXCR4 coreceptor: Interactions of pAACs and arginine-peptides with CXCR4 were determined by flow cytometry (FACS-Scan, Becton Dickinson) as previously described (Litovich (2001) supra). In brief, 0.5×10^6 MT2 cells were washed with ice-cold PBS containing 0.1% sodium azide (wash buffer) and were incubated at 4° C. with anti-CXCR4 mAb, 12G5, conjugated to phycoerithrine (PE), in the absence or presence of different concentrations of pAACs and arginine peptides. After 30 minutes of incubation, the cells were washed with ice-cold wash buffer and fixed in PBS containing 1% paraformaldehyde. Non-specific fluorescence was assessed using an isotype control. For each sample 10,000 events were acquired. Data were analyzed and processed using CellQuest™ software (Becton Dickinson).

S. aureus MRSA = settings: Gram positive clinical isolate
[10] = system: Enterococcus faecalis (clinical isolate); settings: Gram positive clinical isolate
[11] = system: Pseudomonas aeruginosa ATCC 27853; settings: Gram negative reference strain
S. epidermidis MRSE = settings: Gram positive clinical isolate
cMAGI cells = settings: FITC derivatives, 5 and 15 μM, 30 minutes at 37° C.
Description: Cellular uptake using pAACs and polyarginine peptide-fluorescent derivatives: cMAGI cells were incubated in a 8-well plate (2000 cells/well) with a pAACs-FITC or a peptide-FITC derivative at a final concentration of 5 and 15 μM, for 30 minutes at 37° C. After incubation, cells were washed 3 times with phosphate buffered saline 3 times and were subjected to confocal microscopy measurements (Olympus IX70 FV500 confocal laser scanning microscope).

[12] = system: Acinetobacter baumannii ATCC 19606; settings: Gram negative reference strain
E. Coli-ESBL negative = settings: Gram negative clinical isolate
[13] = system: A. baumannii-amikacin^r, meropenem^r; settings: Gram negative clinical isolate
[14] = system: Staphylococcus aureus ATCC 24213; settings: Gram positive reference strain
[15] = system: Streptococcus bovis ATCC 9809; test: MIC, broth microdilution; format: cell-based; settings: Gram positive reference strain
Description: as §2, §3, §4, §5

S. epidermidis MSSE = settings: Gram positive clinical isolate
Enterobacter cloacae = settings: Gram negative clinical isolate
in vitro = format: cell-based; settings: human, MT2 cells; Table 3; trypan blue exclusion; read-out: Cytotoxicity
Description: Cytotoxicity of the various pAACs was determined using the trypan blue exclusion assay. In brief, a sample of the cell suspension was diluted 1:1 (v/v) with 0.4% trypan blue and the cells were counted using a hemocytometer. Results are expressed as the percentage of dead cells.
as §1

E. coli U23773^r = settings: Gram negative clinical isolate
S. epidermidis B32954 = test: MIC, broth microdilution; format: cell-based, Staphylococcus epidermidis; settings: Gram positive clinical isolate
[16] = system: Enterococcus faecalis B84939-vancomycin^r; test: MIC, broth microdilution; format: cell-based; settings: Gram positive clinical isolate
[17] = system: Enterobacter cloacae W25161; settings: Gram negative clinical isolate
A. baumannii R16998 = settings: Gram negative clinical isolate
[18] = system: Enterococcus faecium (clinical isolate); test: MIC, broth microdilution; format: cell-based; settings: Gram positive clinical isolate
P. aeruginosa R17093 = test: MIC, broth microdilution; format: cell-based, Pseudomonas aeruginosa; settings: Gram negative clinical isolate; for MIC: read-out: Minimum Inhibitory Concentration
[19] = read-out: Minimum Inhibitory Concentration

Compound: N=C(N)NCCC[C@H](NC(=O)[C@H](CCCNC(=N)N)NC(=O)[C@H](CCCNC(=N)N)NC(=O)[C@H](CCCNC(=N)N)NC(=O)[C@H](CCCNC(=N)N)NC(=O)[C@H](CCCNC(=N)N)NC(=O)[C@H](CCCNC(=N)N)NC(=O)[C@H](CCCNC(=N)N)NC(=O)[C@@H](N)CCCNC(=N)N)C(=O)O [Compound 5, L-Arg-9-mer-NH2]
- Minimum Inhibitory Concentration [1]: > 256.0 mg/liter and 126.50 μM
- Minimum Inhibitory Concentration [2]: > 256.0 mg/liter and 126.50 μM
- Minimum Inhibitory Concentration (Serratia marcescens): > 256.0 mg/liter and 126.50 μM
- Minimum Inhibitory Concentration [3]: > 256.0 mg/liter and 126.50 μM
- Minimum Inhibitory Concentration (S. aureus MSSA): 128.0 mg/liter and 63.25 μM
- EC50 (HIV-1 IIIB): 33 µM
- Minimum Inhibitory Concentration [4]: 32.0 mg/liter and 15.81 μM
- Minimum Inhibitory Concentration (VRE faecium): > 128.0 mg/L
- Minimum Inhibitory Concentration (E. coli U3075921): > 256.0 mg/L
- Minimum Inhibitory Concentration [5]: > 256.0 mg/liter and 126.50 μM
- Minimum Inhibitory Concentration [6]: > 256.0 mg/liter and 126.50 μM
- Minimum Inhibitory Concentration [7]: > 256.0 mg/liter and 126.50 μM
- Minimum Inhibitory Concentration (E. Coli-ESBL positive): 256.0 mg/liter and 126.50 μM
- Minimum Inhibitory Concentration (Enterobacter aerogenes): > 256.0 mg/liter and 126.50 μM
- Minimum Inhibitory Concentration [8]: > 256.0 mg/liter and 126.50 μM
- Minimum Inhibitory Concentration [9]: > 256.0 mg/liter and 126.50 μM
- inhibition at 80 µM (CXCR4): 52.8%
- Minimum Inhibitory Concentration (S. aureus MRSA): > 128.0 mg/liter and 63.25 μM
- Minimum Inhibitory Concentration [10]: 128.0 mg/liter and 63.25 μM
- Minimum Inhibitory Concentration [11]: > 256.0 mg/liter and 126.50 μM
- Minimum Inhibitory Concentration (S. epidermidis MRSE): 32.0 mg/liter and 15.81 μM
- cellular uptake (cMAGI cells): lower uptake efficiency
- Minimum Inhibitory Concentration [12]: > 256.0 mg/liter and 126.50 μM
- Minimum Inhibitory Concentration (E. Coli-ESBL negative): > 256.0 mg/liter and 126.50 μM
- Minimum Inhibitory Concentration [13]: > 256.0 mg/liter and 126.50 μM
- Minimum Inhibitory Concentration [14]: 128.0 mg/liter and 63.25 μM
- Minimum Inhibitory Concentration [15]: 128.0 mg/L
- Minimum Inhibitory Concentration (S. epidermidis MSSE): 12.0 mg/liter and 5.93 μM
- Minimum Inhibitory Concentration (Enterobacter cloacae): > 256.0 mg/liter and 126.50 μM
- CC50 (in vitro): 120 µM

Compound: L-Arg-9-mer-neomycin [Compound 8]
- Minimum Inhibitory Concentration [2]: 1.5 mg/liter and 0.51 μM
- Minimum Inhibitory Concentration (E. coli U23773^r): 96.0 mg/liter and 32.88 μM
- Minimum Inhibitory Concentration (E. coli U23773^r; listed as L-Neo-9-mer): 32.88 µM
- Minimum Inhibitory Concentration (Serratia marcescens): 4.0 mg/liter and 1.37 μM
- Minimum Inhibitory Concentration [3]: 6.0 mg/liter and 2.06 μM
- Minimum Inhibitory Concentration (S. aureus MSSA): 4.0 mg/liter and 1.37 μM
- EC50 (HIV-1 IIIB): 30 ± 7 µM
- Minimum Inhibitory Concentration (S. epidermidis B32954): 0.5 mg/L
- MIC (S. epidermidis B32954; [19]): 0.17 µM
- Minimum Inhibitory Concentration [6]: 3.0 mg/liter and 1.03 μM
- Minimum Inhibitory Concentration [7]: 48.0 mg/liter and 16.44 μM
- Minimum Inhibitory Concentration (E. Coli-ESBL positive): 8.0 mg/liter and 2.74 μM
- Minimum Inhibitory Concentration [16]: 32.0 mg/L
- MIC [16, 19]: 10.96 µM
- Minimum Inhibitory Concentration (Enterobacter aerogenes): 8.0 mg/liter and 2.74 μM
- Minimum Inhibitory Concentration [17]: 8.0 mg/liter and 2.74 μM
- Minimum Inhibitory Concentration [9]: 128.0 mg/liter and 43.83 μM
- Minimum Inhibitory Concentration (A. baumannii R16998): 128.0 mg/liter and 43.83 μM
- Minimum Inhibitory Concentration (S. aureus MRSA): 2.0 mg/liter and 0.68 μM
- Minimum Inhibitory Concentration [10]: 256.0 mg/liter and 87.67 μM
- Minimum Inhibitory Concentration (S. epidermidis MRSE): 0.5 mg/liter and 0.17 μM
- Minimum Inhibitory Concentration (E. Coli-ESBL negative): 4.0 mg/liter and 1.37 μM
- Minimum Inhibitory Concentration [13]: 128.0 mg/liter and 43.83 μM
- Minimum Inhibitory Concentration ([13]; listed as L-Neo-9-mer): 57.92 µM
- Minimum Inhibitory Concentration (S. epidermidis MSSE): 0.5 mg/liter and 0.17 μM
- Minimum Inhibitory Concentration [18]: 32.0 mg/L
- MIC [18, 19]: 10.96 µM
- Minimum Inhibitory Concentration (Enterobacter cloacae): 8.0 mg/liter and 2.74 μM
- Minimum Inhibitory Concentration (P. aeruginosa R17093): 128.0 mg/L
- MIC (P. aeruginosa R17093; listed as L-Neo-9-mer): 43.83 µM
- MIC (P. aeruginosa R17093): 43.83 µM
